Series [1] relates to Wistar rats Rj Wi IOPS Han. Description: Photopic electroretinogram (ERG) in VGB-treated rats. In kind it is in vivo, rat. The conditions noted are these: for photopic ERG amplitude versus control group: p<0.001/p<0.01. The method, then: (§1) Animal treatments: As described previously (Duboc et al., 2004), Wistar rats Rj Wi IOPS Han were purchased from Janvier (Le Genest-St-lsle, France) at between six and seven weeks of age. VGB dissolved in 0.9% NaCl was administered at 40 mg (125 mg/ml, 0.32 ml) to rats by daily intraperitoneal injection for 65 days. These daily doses (rats: 200 mg/kg) are in-line with those described for the treatment of epilepsy in animals (Andre et al., 2001) or in humans (adult patients: […]; children: 50-75 mg/kg; or infants: 100-150 mg/kg) (Aicardi et al., 1996; Chiron et al., 1997; Lux et al., 2004). Light intensity in the animal cages ranged between 125 and 130 lux.
Electroretinogram (ERG): Photopic ERGs were recorded after the last VGB injection, as described previously (Duboc et al., 2004). Anesthesia was induced by intraperitoneal injection (0.8 to 1.2 ml/kg) of a solution containing ketamine (40 mg/ml) and xylazine (4 mg/ml Rompum). Animals were light-adapted for 10 minutes with a background light of 25 cdm^−2. Light flashes were then applied on this background light; the light intensity of the flash was 25 cdsm^−2. Ten recordings were averaged with an interstimulus interval of 30 s.
Statistical analysis: Statistical analysis of the results was performed by a one-way analysis of variance with the Student-Newman Keuls test (Sigmastat) for all measurements.

Series [2] deals with Wistar rats Rj Wi IOPS Han. Description: Histology: lengths of disorganised retinal areas (DAPI nuclear staining). The conditions noted are these: evening versus morning injection, 65 days; p<0.05. In kind it is in vivo, rat. As to the method:
as §1
Histology: Eye cups were fixed overnight at 4° C. in 4 % (wt/vol) paraformaldehyde in phosphate buffered saline (PBS; 0.01 M, pH 7.4). The tissue was cryoprotected in successive solutions of PBS containing 10%, 20% and 30% sucrose at 4° C., oriented along the dorso-ventral axis and embedded in OCT (Labonord, Villeneuve d'Ascq, France). […]
(§2) For quantification, vertical sections along the dorso-ventral axis were selected at the optic nerve. Following DAPI nuclear staining, the lengths of disorganised retinal areas were measured; GFAP immunostaining was used for detection and quantificationof retinal areas with reactive gliosis. […]

Series [3] has as its system Wistar rats Rj Wi IOPS Han. Description: Histology: retinal gliosis by GFAP immunolabelling. The class given is in vivo, rat. The conditions noted are these: 65 days. As to the method: as §1
Histology: Eye cups were fixed overnight at 4° C. in 4 % (wt/vol) paraformaldehyde in phosphate buffered saline (PBS; 0.01 M, pH 7.4). The tissue was cryoprotected in successive solutions of PBS containing 10%, 20% and 30% sucrose at 4° C., oriented along the dorso-ventral axis and embedded in OCT (Labonord, Villeneuve d'Ascq, France). Retinal sections (8-10 μm thickness) were permeabilised for five minutes in PBS containing 0.1% Triton X-100 (Sigma, St. Louis, Mo.), rinsed, and incubated in PBS containing 1% bovine serum albumin (Eurobio, Les-Ulis, France), 0.1% Tween 20 (Sigma), and 0.1% sodium azide (Merck, Fontenay-Sous-Bois, France) for two hours at room temperature. The primary antibody added to the solution was incubated for two hours at room temperature. Polyclonal antibodies were directed against rabbit GFAP (1/400, Dako, USA). Sections were rinsed and then incubated with the secondary antibody, goat anti-rabbit IgG conjugated to Alexa TM488 (1:500, Molecular Probes, Eugene, Oreg.) for two hours. The dye, diamidiphenyl-indole (DAPI), was added during the final incubation period. […]
as §2

For series [4] the following is noted: patients, oral administration; cited from earlier work.
Series [5] concerns visual field. The conditions noted are these: patients; cited from earlier work.
In series [6] the target is GABA transaminase (Homo sapiens, UniProt P80404). The conditions noted are these: cited from earlier work.

Here are results for one compound from US20120157532A1, “Method Of Treating Or Preventing A Convulsive Disorder In A Patient In Need Thereof” (priority 2009, published 2012).

Molecules are shown by their SMILES.

Chain of GABA transaminase (P80404 29-500, species assumed): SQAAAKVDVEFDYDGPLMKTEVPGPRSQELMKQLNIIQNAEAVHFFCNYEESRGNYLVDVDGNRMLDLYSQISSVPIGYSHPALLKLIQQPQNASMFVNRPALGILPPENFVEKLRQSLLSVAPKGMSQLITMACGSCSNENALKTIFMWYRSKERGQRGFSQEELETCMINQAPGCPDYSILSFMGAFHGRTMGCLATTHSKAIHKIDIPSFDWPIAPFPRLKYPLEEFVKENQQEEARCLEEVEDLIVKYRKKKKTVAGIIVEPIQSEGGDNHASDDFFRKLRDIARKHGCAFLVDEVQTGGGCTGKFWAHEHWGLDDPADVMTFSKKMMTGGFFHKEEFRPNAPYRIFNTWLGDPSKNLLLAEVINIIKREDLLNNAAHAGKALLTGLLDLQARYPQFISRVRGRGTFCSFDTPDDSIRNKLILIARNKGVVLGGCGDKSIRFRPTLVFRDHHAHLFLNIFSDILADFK

Consider `C=CC(N)CCC(=O)O` (centres unmarked) [VGB, 4-amino-5-hexenoic acid], for which the “photopic ERG amplitude versus control group” value in series [1] (VGB AM: 40 mg daily i.p. for 65 days at the beginning of the light cycle) and in series [1] (VGB PM: 40 mg daily i.p. for 65 days at the end of the light cycle) was “lower ERG amplitude” throughout. For the same compound, the “ERG amplitude decrease, VGB PM versus VGB AM” value in series [1] (injected at the end versus the beginning of the light cycle, 65 days, p<0.005) is “less important”. In series [2], the “disorganised retinal areas (outer nuclear layer), VGB PM versus VGB AM” value is given as “smaller disorganised retinal areas”. Also, the “GFAP staining in the outer retina versus control animals” value in series [3] (VGB AM: morning injection) and in series [3] (VGB PM: evening injection) was “intense staining in the outer retina” each time. Moreover, the “distribution of GFAP-positive areas, VGB PM versus VGB AM” value in series [3] (evening versus morning injection, p<0.05) is recorded as “less widely distributed”. Also, in series [4], the “time for plasma VGB concentration to decrease to half of the peak concentration” value is reported as “within six to eight hours”. In addition, the “time to peak plasma VGB concentration” value in series [4] is given as “within an hour”. The “effect on visual field” value in series [5] is listed as “irreversible constriction of the visual field”. The “duration of irreversible inhibition of the GABA transaminase” value in series [6] is recorded as “lasts for few days”.
